Like-named read-outs stand apart in the source and are kept apart here. Bridge positions count the residues as written; N and C are the ends. Peptide text beside a SMILES is read from it.
Experiments:
[1] = molecular target: T1, human heterochannels Kv(1.1-1.2)2 (Homo sapiens, UniProt P16389+Q09470, S369T/S371T); assay: Competitive binding of peptide and HgTx-G to Kv(1.1-1.2)2 heterochannels; details: for Kd: Kv(1.1-1.2)2 formed by K-Kv1.1-1.2, competitive displacement of 0.5 nM HgTx-G, complete medium, 1 h, Cheng-Prusoff, mean ± SEM of three independent experiments, read-out: apparent dissociation constant (Kap); for affinity for Kv(1.1-1.2)2 in words: Kv(1.1-1.2)2, competitive binding with HgTx-G; for fold lower activity compared to Ce1: Kv(1.1-1.2)2, vs Ce1; for displacement of HgTx-G: 0.5 nM HgTx-G, 10 nM HgTx1 (Figure 1)
T1 construct: expressed in transfected cells; host or cells: mouse neuroblastoma Neuro-2a cells transfected with pmKate2-KCNA1-KCNA2
Description: To construct the gene encoding a fluorescent concatenated dimer mKate2-Kv1.1-Kv1.2 (K-Kv1.1-1.2), a cloning strategy was used, in which the C-terminus of the human Kv1.1 α-subunit was fused end-to-end to the N-terminus of the human Kv1.2 α-subunit via a short KL linker that corresponds to the HindIII restriction site. Here, we followed the design of the α-subunit concatemers proposed earlier. The previously obtained plasmids pmKate2-KCNA1 and pmKate2-KCNA2, which coded for mKate2-Kv1.1 (K-Kv1.1) and mKate2-Kv1.2 (K-Kv1.2) fusion proteins, were used for cloning. In these proteins, both human α-subunits Kv1.1 and Kv1.2 are N-terminally tagged with the red fluorescent protein mKate2 and harbor single mutations (S369T in Kv1.1, and S371T in Kv1.2) that improve the surface presentation of the homotetrameric channels. At first, pmKate2-KCNA1stopless was generated by amplification of the KCNA1 gene lacking TAA stop codon in a polymerase chain reaction (PCR) using a pair of oligonucleotide primers Kcna1-f1 (5′-[…]-3′) and Kcna1-Stop-r1 (5′-[…]-3′; BglII and HindIII sites are underlined). The obtained DNA fragment was hydrolyzed by BglII/HindIII restriction endonucleases and cloned into pmKate2-KCNA1 plasmid to substitute KCNA1 for KCNA1stopless. The obtained plasmid pmKate2-KCNA1stopless was further used as a vector to produce the KCNA1-KCNA2 dimer. For this, the KCNA2 gene was amplified in PCR using primers Kcna2-Hind-f1 (5′- […]-3′) and Kcna2-Sal-r1 ([…]-3′; HindIII, SalGI, and PstI sites are underlined; TAA stop codon is marked in bold) and cloned into HindIII/SalI sites of pmKate2-KCNA1stopless. The resulting pmKate2-KCNA1-KCNA2 plasmid encoded K-Kv1.1-1.2.
To analyze the binding of HgTx-G to heterochannels, HgTx-G (0.032–2 nM) was added to cells in the complete medium for 1 h. In the experiments with competitive binding, HgTx-G (0.5 nM) was added to cells, together with the studied peptide ([…]; 1.25–100 nM ChTx; 0.5–20 nM AgTx2, 2–10 nM MeKTx11-1, 0.063–1 nM Ce1, 0.063–1 nM Ce4, or 1 µM ScyTx), and incubated in the complete medium for 1 h.
Confocal microscopy measurements were carried out with the SP2 laser scanning confocal microscope (Leica Microsystems GmbH, Wetzlar, Germany), using the 63× water-immersion objective (HCX PL APO, NA = 1.2). Axial and lateral resolutions were 0.6 and 0.2 µm.
Fluorescence of proteins labeled with mKate2 was excited at 561 nm and detected in the 680–800 nm region. Fluorescence of HgTx-G was excited at 488 nm and recorded in the 495–540 nm region. The fluorescent probes of various cellular organelles were excited at 488 nm and detected in the 495–540 nm region.
Quantitative analysis of HgTx-G interaction with heterochannels was performed following the procedure developed previously. Briefly, confocal images of cells were used to calculate the ratio of the fluorescence intensity of HgTx-G bound to heterochannels to the fluorescence intensity of membrane-embedded heterochannels for each measured cell. This ratio was averaged over a sample of measured cells (20–30 cells) to obtain the Rav value and its standard deviation.
To characterize the affinity of unlabeled peptide for heterochannels, the competitive binding of this peptide and HgTx-G to heterochannels was measured at the constant concentration of HgTx-G (L) and increasing concentration (C) of the peptide. Rav data were calculated, plotted as a function of C, and fitted with the following equation:Rav(C) = Rav0/(1 + C/DC50)(2) where DC50 is the peptide concentration displacing 50% of HgTx-G from the complex with heterochannels, and Rav0 is Rav at C = 0.
Further, the Cheng–Prusoff equation was used to calculate the apparent dissociation constant (Kap) of the complex between the studied peptide and heterochannels:Kap = DC50/(1 + L/Kd)(3)
Three independent experiments were performed, and data on Kap were averaged and presented as mean ± SEM.

Kv1.1 [2] = details: cited from earlier work; for Kd: Kv1.1, read-out: Kap
Description: (§1) These properties were also similar to those reported by other investigators for the corresponding homotetrameric channels, Kv1.1 and Kv1.2. It was also shown that the Kd of the complexes between HgTx-G, a high-affinity fluorescent ligand for the Kv1.1 and Kv1.2 channels, and ...

Kv1.2 [3] = details: cited from earlier work; for Kd: Kv1.2, ref [35], read-out: Kap
Description: as §1

Kv1.2 [4] = assay: Competitive binding, homotetrameric Kv1.2 channel (earlier data); details: Kv1.2 vs Kv1.1 (Table 2)
Kv1.3 [5] = assay: Ce4 activity on Kv1.3 (earlier data); details: Table 2 and data published previously [35]
Kv1.1 [6] = assay: Competitive binding, homotetrameric Kv1.1 channel (earlier data); details: Table 2 and data published previously [35]
Kv1.3 [7] = test system: Kv1.3; parameters: method as in PMID 9446567; details: HEK-293 cells; ref [14]; cited from earlier work
Kv1.1 [8] = test system: Kv1.1; parameters: method as in PMID 9446567; details: HEK-293 cells; ref [14]; cited from earlier work
Kv1.2 [9] = test system: Kv1.2; parameters: method as in PMID 9446567; details: HEK-293 cells; ref [14]; cited from earlier work
Kv1.6 = test system: Kv1.6; parameters: method as in PMID 9446567; details: HEK-293 cells; ref [14]; cited from earlier work

T1 sequence (Q09470 whole entry S369T): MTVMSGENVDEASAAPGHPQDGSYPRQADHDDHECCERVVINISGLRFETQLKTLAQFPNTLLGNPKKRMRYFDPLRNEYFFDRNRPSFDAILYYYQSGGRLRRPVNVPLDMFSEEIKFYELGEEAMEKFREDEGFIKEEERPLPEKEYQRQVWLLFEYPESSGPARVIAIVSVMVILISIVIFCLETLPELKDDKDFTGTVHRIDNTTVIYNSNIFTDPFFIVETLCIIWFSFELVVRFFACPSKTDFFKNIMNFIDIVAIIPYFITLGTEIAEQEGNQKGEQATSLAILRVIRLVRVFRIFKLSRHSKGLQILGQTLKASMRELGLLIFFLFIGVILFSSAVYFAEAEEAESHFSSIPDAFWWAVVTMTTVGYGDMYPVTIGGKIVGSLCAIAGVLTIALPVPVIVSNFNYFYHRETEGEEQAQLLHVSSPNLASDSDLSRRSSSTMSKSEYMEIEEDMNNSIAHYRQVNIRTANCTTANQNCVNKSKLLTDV
T1 sequence (P16389 2-499 S371T): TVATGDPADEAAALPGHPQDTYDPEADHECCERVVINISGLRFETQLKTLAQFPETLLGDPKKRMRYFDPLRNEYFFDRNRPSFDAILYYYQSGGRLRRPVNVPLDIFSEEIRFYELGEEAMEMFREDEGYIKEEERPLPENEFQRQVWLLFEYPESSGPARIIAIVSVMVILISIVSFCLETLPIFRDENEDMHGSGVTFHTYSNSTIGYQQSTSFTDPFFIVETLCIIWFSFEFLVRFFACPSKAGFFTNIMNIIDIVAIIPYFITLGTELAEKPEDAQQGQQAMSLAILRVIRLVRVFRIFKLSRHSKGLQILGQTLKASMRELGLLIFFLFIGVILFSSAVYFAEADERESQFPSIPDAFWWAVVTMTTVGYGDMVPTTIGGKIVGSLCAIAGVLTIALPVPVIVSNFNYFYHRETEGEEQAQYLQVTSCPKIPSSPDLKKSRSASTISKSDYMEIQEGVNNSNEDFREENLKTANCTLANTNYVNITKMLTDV

| Structure (SMILES) | Kd [1] | affinity for Kv(1.1-1.2)2 in words [1] | Kd (Kv1.1 [2]; ref [34]) | Kd (Kv1.2 [3]) | activity against Kv1.2 compared to Kv1.1 (Kv1.2 [4]) | fold lower activity compared to Ce1 [1] | selectivity: activity against Kv1.2 and Kv(1.1-1.2)2 higher than against Kv1.3 (Kv1.3 [5]) | Kd (Kv1.1 [2]; ref [35]) | selectivity: activity against Kv1.2 and Kv(1.1-1.2)2 higher than against Kv1.1 (Kv1.1 [6]) | displacement of HgTx-G ([1]; channels formed by K-Kv1.1-1.2) | displacement of HgTx-G ([1]; channels formed by K-Kv1.2-1.1) | displacement of HgTx-G from the complexes (Kv1.1 [2]; K-Kv1.1-1.1 and K-Kv1.1, ref [28],[29]) | displacement of HgTx-G from the complexes (Kv1.2 [3]; K-Kv1.2-1.2 and K-Kv1.2, ref [28],[29]) | affinity, 86Rb+ flux inhibition (Kv1.3 [7]) | affinity, 86Rb+ flux inhibition (Kv1.1 [8]) | affinity, 86Rb+ flux inhibition (Kv1.2 [9]) | affinity, 86Rb+ flux inhibition (Kv1.6) |
| --- | --- | --- | --- | --- | --- | --- | --- | --- | --- | --- | --- | --- | --- | --- | --- | --- | --- |
| CC[C@H](C)[C@@H]1NC(=O)[C@@H]2CSSC[C@@H]3NC(=O)[C@H](CCCCN)NC(=O)[C@H](CCCNC(=N)N)NC(=O)[C@H](CC(N)=O)NC(=O)[C@H](CCSC)NC(=O)[C@H](CSSC[C@H](NC(=O)[C@H](CO)NC(=O)[C@@H](NC(=O)[C@H](CC(N)=O)NC(=O)[C@@H](NC(=O)[C@@H]4CCCN4C(=O)[C@@H](NC(=O)CN)C(C)C)[C@@H](C)CC)C(C)C)C(=O)N[C@@H]([C@@H](C)O)C(=O)NCC(=O)N[C@@H](CO)C(=O)N4CCC[C@H]4C(=O)N[C@@H](CCC(N)=O)C(=O)N2)NC(=O)[C@H](CCCCN)NC(=O)CNC(=O)[C@H](Cc2ccccc2)NC(=O)[C@H](CCCNC(=N)N)NC(=O)[C@H](CCSC)NC(=O)CNC(=O)[C@H](C)NC(=O)[C@H](CC(=O)O)NC(=O)[C@H](CCCCN)NC(=O)[C@H](CSSC[C@@H](C(=O)N[C@H](C(=O)N2CCC[C@H]2C(=O)N[C@@H](CCCCN)C(=O)O)[C@@H](C)O)NC(=O)[C@H](Cc2c[nH]cn2)NC3=O)NC(=O)[C@@H]2CCCN2C(=O)[C@H](CCCCN)NC1=O [AgTx2, agitoxin 2] | 0.25 ± 0.05 nM | – | – | – | – | – | – | – | – | – | – | – | – | – | – | – | – |
| CC[C@H](C)[C@H](NC(=O)[C@@H](NC(=O)[C@@H](N)[C@@H](C)O)C(C)C)C(=O)N[C@@H](CC(N)=O)C(=O)N[C@H](C(=O)N[C@@H](CCCCN)C(=O)N[C@H]1CSSC[C@@H]2NC(=O)[C@H](CCCCN)NC(=O)[C@H](C)NC(=O)CNC(=O)[C@H](C)NC(=O)[C@H](Cc3c[nH]cn3)NC(=O)[C@@H]3CCCN3C(=O)CNC(=O)[C@H](Cc3ccc(O)cc3)NC(=O)[C@H](CC(C)C)NC(=O)[C@H](CC(=O)O)NC(=O)[C@H](CCCCN)NC(=O)[C@@H]3CSSC[C@@H](C(=O)N[C@@H](Cc4ccc(O)cc4)C(=O)N[C@@H](CC(N)=O)C(=O)N[C@@H](CC(N)=O)C(=O)O)NC(=O)[C@H](CCCCN)NC(=O)[C@H](CSSC[C@H](NC(=O)[C@H](CCC(N)=O)NC(=O)[C@H](CCCCN)NC(=O)[C@@H]4CCCN4C(=O)[C@H](CO)NC(=O)[C@H]([C@@H](C)O)NC1=O)C(=O)N[C@@H](CC(C)C)C(=O)N[C@@H](CCCCN)C(=O)N1CCC[C@H]1C(=O)N3)NC(=O)[C@H](CCCCN)NC(=O)CNC(=O)[C@H](CC(N)=O)NC(=O)[C@H](CCSC)NC2=O)C(C)C [Ce1] (H-TVINVKCTSPKQCLKPCKDLYGPHAGAKCMNGKCKCYNN-OH; disulfide 7-29, 13-34, 17-36; N-terminus and C-terminus assumed) | – | highest picomolar affinity | 11 ± 5 nM | 0.01 ± 0.002 nM | much higher activity against the Kv1.2 channel than against the Kv1.1 channel | – | – | – | – | – | – | – | – | – | – | – | – |
| CC[C@H](C)[C@H](NC(=O)[C@H](CCCCN)NC(=O)[C@H](Cc1ccc(O)cc1)NC(=O)[C@@H]1CSSC[C@@H]2NC(=O)[C@@H]3CCCN3C(=O)[C@H](CC(C)C)NC(=O)[C@H](CC(C)C)NC(=O)[C@@H]3CSSC[C@H](NC(=O)[C@H](CCCCN)NC(=O)CNC(=O)[C@H](CC(N)=O)NC(=O)[C@H](CCSC)NC(=O)[C@H](CSSC[C@H](NC(=O)[C@H](CCCCN)NC(=O)[C@@H](NC(=O)[C@H](CC(N)=O)NC(=O)[C@@H](NC(=O)[C@@H](NC(=O)[C@@H](N)[C@@H](C)O)[C@@H](C)CC)[C@@H](C)CC)C(C)C)C(=O)N[C@@H]([C@@H](C)O)C(=O)N[C@@H](CO)C(=O)N4CCC[C@H]4C(=O)N[C@@H](CCCCN)C(=O)N[C@@H](CCC(N)=O)C(=O)N3)NC(=O)[C@H](CCCCN)NC(=O)[C@H](C)NC(=O)CNC(=O)[C@H](C)NC(=O)[C@H](Cc3c[nH]cn3)NC(=O)[C@H]([C@@H](C)CC)NC(=O)CNC(=O)[C@H](Cc3ccc(O)cc3)NC(=O)[C@H]([C@@H](C)CC)NC(=O)[C@H](CCC(=O)O)NC(=O)[C@H](CCCCN)NC2=O)C(=O)N[C@@H](CCCCN)C(=O)N1)C(=O)O [Ce4] (H-TIINVKCTSPKQCLLPCKEIYGIHAGAKCMNGKCKCYKI-OH; disulfide 7-29, 13-34, 17-36; N-terminus and C-terminus assumed) | – | – | – | 0.03 ± 0.01 nM | much higher activity against the Kv1.2 channel than against the Kv1.1 channel | approximately threefold | > 1000 times | > 300 nM | more than 10,000 times | – | – | – | – | – | – | – | – |
| CC[C@H](C)[C@@H]1NC(=O)CNC(=O)[C@H](Cc2ccccc2)NC(=O)[C@H](CCC(N)=O)NC(=O)[C@H](C)NC(=O)[C@H](CCCCN)NC(=O)[C@@H]2CSSC[C@@H](C(=O)N[C@@H](Cc3ccc(O)cc3)C(=O)N3CCC[C@H]3C(=O)N[C@@H](Cc3c[nH]cn3)C(=O)O)NC(=O)[C@H](CCCCN)NC(=O)[C@@H]3CSSC[C@H](NC(=O)[C@H](CCC(N)=O)NC(=O)[C@H](CCCCN)NC(=O)[C@@H]4CCCN4C(=O)[C@H](CO)NC(=O)[C@H]([C@@H](C)O)NC(=O)[C@@H](NC(=O)[C@H](CCCCN)NC(=O)[C@@H](NC(=O)[C@H](CC(=O)O)NC(=O)[C@@H](NC(=O)[C@@H](NC(=O)[C@@H](N)[C@@H](C)O)C(C)C)[C@@H](C)CC)C(C)C)CSSC[C@H](NC(=O)[C@H](CCCCN)NC(=O)[C@H](C)NC(=O)CNC(=O)[C@H](C)NC(=O)[C@H](CCCNC(=N)N)NC1=O)C(=O)N[C@@H](CCSC)C(=O)N[C@@H](CC(N)=O)C(=O)NCC(=O)N[C@@H](CCCCN)C(=O)N3)C(=O)N[C@@H](CC(C)C)C(=O)N1CCC[C@H]1C(=O)N1CCC[C@H]1C(=O)N2 [HgTx1, hongotoxin 1] (H-TVIDVKCTSPKQCLPPCKAQFGIRAGAKCMNGKCKCYPH-OH; disulfide 7-29, 13-34, 17-36; N-terminus and C-terminus assumed) | 0.04 ± 0.01 nM | very high affinity | 0.03 ± 0.02 nM | 0.02 ± 0.01 nM | – | approximately threefold | – | – | – | displaced HgTx-G | displaced HgTx-G | displaced | displaced | subnanomolar | subnanomolar | subnanomolar | nanomolar |

Source: publication PMC12427625, “Heterochannels Kv(1.1-1.2)2 and Their Interactions with Pore Blockers” (Cells, 2025)
